The values below come from patent US20070003671A1, “Two-part calcium fortified compositions and methods of making the same” (priority 2005, published 2007).

The nature of data set [1]: Calcium salts, physical/chemical attributes in orange juice, 450 mg/100 mL calcium load. The class given is physicochemical. The note with it: for Brix/Acid Ratio: unfortified juice 18.3. From the text:
(§1) The flavor of orange juice, for example, can be characterized by a unique balance of sweetness resulting from the sugar content and tartness resulting from the acid content. A challenge of fortifying orange juice with nutritionally significant amounts of calcium is maintaining the sweet to tart balance. This balance can be expressed analytically as the Brix to acid ratio, as described above. The Brix component of the ratio is the measure of soluble solids in the composition often determined by a refractometer. The acid component can be determined by titration with a base such as sodium hydroxide. The Brix to acid ratio is an analytical representation or measure of the sweet to tart taste balance.
A variety of calcium salts, i.e., calcium components, were evaluated to determine their effects on the Brix-acid ratio. In this evaluation, orange juices fortified with different calcium salts were prepared at 450 mg/100 mL of calcium load.

A short description of data set [2]: Calcium salts, physical/chemical attributes in orange juice, 350 mg/100 mL calcium load. Type of data set: physicochemical. The note with it: for Brix/Acid Ratio: unfortified juice 18.3.
Excerpt: as §1
A variety of calcium salts, i.e., calcium components, were again evaluated to determine their effects on the Brix-acid ratio but this time at 350 mg/100 mL calcium load.

Take `N[C@@H](CCC(=O)[O-])C(=O)[O-].O.O.O.O.[Ca+2]` [calcium L-glutamate tetrahydrate]: in data set [1], the “Brix (48 Hours)” value stood at 13.81, the “Calcium - Juice (48 Hours)” value is listed as 207 mg/100 mL, the “Titratable Acidity (%) (48 Hours)” value stood at 0.627% and the “pH (48 Hours)” value is recorded as 4.47. Also, the “Brix/Acid Ratio” value in data set [1] amounted to 22.0. In data set [2], the “Brix (48 hrs)” value came out at 13.41, the “Calcium in Juice (48 hrs)” value was 161 mg/100 mL, the “Titratable Acidity (%) (48 hrs)” value worked out at 0.621% and the “pH (48 hrs)” value stood at 4.42. Also, in data set [2], the “Brix/Acid Ratio” value came out at 21.6.

Regarding `O.O.O=C([O-])[C@H](O)[C@@H](O)C(=O)[O-].[Ca+2]` [calcium L-tartrate dihydrate], in data set [1], the “Brix (48 Hours)” value is given as 12.02, the “Calcium - Juice (48 Hours)” value worked out at 140 mg/100 mL, the “Titratable Acidity (%) (48 Hours)” value came out at 0.545% and the “pH (48 Hours)” value was 4.23. The “Brix/Acid Ratio” value in data set [1] is 22.1. Also, in data set [2], the “Brix (48 hrs)” value was found to be 11.99, the “Calcium in Juice (48 hrs)” value is 113 mg/100 mL, the “Titratable Acidity (%) (48 hrs)” value came out at 0.574% and the “pH (48 hrs)” value is 4.17. The “Brix/Acid Ratio” value in data set [2] was 20.9.

With `O=C([O-])[O-].[Ca+2]` [calcium carbonate], in data set [1], the “Brix (48 Hours)” value is listed as 12.44, the “Calcium - Juice (48 Hours)” value was determined as 200 mg/100 mL, the “Titratable Acidity (%) (48 Hours)” value is 0.099% and the “pH (48 Hours)” value stood at 5.88. For the same molecule, the “Brix/Acid Ratio” value in data set [1] came out at 125.7. In data set [2], the “Brix (48 hrs)” value is listed as 12.35, the “Calcium in Juice (48 hrs)” value was 158 mg/100 mL, the “Titratable Acidity (%) (48 hrs)” value is on record as 0.188% and the “pH (48 hrs)” value is 5.15. For the same molecule, the “Brix/Acid Ratio” value in data set [2] turned out to be 65.7.

Turning to `O.O.[Ca+2].[Cl-].[Cl-]` [calcium chloride dihydrate], in data set [1], the “Brix (48 Hours)” value is given as 12.70, the “Calcium - Juice (48 Hours)” value is on record as 206 mg/100 mL, the “Titratable Acidity (%) (48 Hours)” value turned out to be 0.620% and the “pH (48 Hours)” value came out at 3.84. In data set [1], the “Brix/Acid Ratio” value is given as 20.5. In data set [2], the “Brix (48 hrs)” value was determined as 12.54, the “Calcium in Juice (48 hrs)” value is 163 mg/100 mL, the “Titratable Acidity (%) (48 hrs)” value stood at 0.618% and the “pH (48 hrs)” value was determined as 3.88. The “Brix/Acid Ratio” value in data set [2] was determined as 20.3.

For the molecule `O=C[O-].O=C[O-].[Ca+2]` [calcium formate], in data set [1], the “Brix (48 Hours)” value is reported as 12.59, the “Calcium - Juice (48 Hours)” value is on record as 206 mg/100 mL, the “Titratable Acidity (%) (48 Hours)” value came to 0.620% and the “pH (48 Hours)” value came to 4.20. Besides, the “Brix/Acid Ratio” value in data set [1] is listed as 20.3. Besides, in data set [2], the “Brix (48 hrs)” value stood at 12.45, the “Calcium in Juice (48 hrs)” value was found to be 160 mg/100 mL, the “Titratable Acidity (%) (48 hrs)” value came to 0.620% and the “pH (48 hrs)” value came to 4.18. Also, the “Brix/Acid Ratio” value in data set [2] is reported as 20.1.

As for `O.O.O.O=C([O-])/C=C/C(=O)[O-].[Ca+2]` [calcium fumarate trihydrate], in data set [1], the “Brix (48 Hours)” value was determined as 12.96, the “Calcium - Juice (48 Hours)” value came to 202 mg/100 mL, the “Titratable Acidity (%) (48 Hours)” value was determined as 0.659% and the “pH (48 Hours)” value was found to be 4.01. Besides, the “Brix/Acid Ratio” value in data set [1] was found to be 19.7. In data set [2], the “Brix (48 hrs)” value was found to be 13.56, the “Calcium in Juice (48 hrs)” value is 158 mg/100 mL, the “Titratable Acidity (%) (48 hrs)” value was 0.643% and the “pH (48 hrs)” value turned out to be 3.99. Also, the “Brix/Acid Ratio” value in data set [2] was 21.1.

`O.O=P([O-])([O-])OCC(O)CO.[Ca+2]` (stereo not shown) [calcium glycerophosphate monohydrate]: in data set [1], the “Brix (48 Hours)” value is listed as 12.73, the “Calcium - Juice (48 Hours)” value turned out to be 187 mg/100 mL, the “Titratable Acidity (%) (48 Hours)” value came out at 0.598% and the “pH (48 Hours)” value stood at 4.50. Also, in data set [1], the “Brix/Acid Ratio” value worked out at 21.3. In addition, in data set [2], the “Brix (48 hrs)” value was determined as 12.54, the “Calcium in Juice (48 hrs)” value is recorded as 145 mg/100 mL, the “Titratable Acidity (%) (48 hrs)” value stood at 0.602% and the “pH (48 hrs)” value came to 4.42. In addition, the “Brix/Acid Ratio” value in data set [2] is reported as 20.8.

With `CC(O)C(=O)[O-].CC(O)C(=O)[O-].O.O.O.O.O.[Ca+2]` (stereo not shown) [calcium lactate pentahydrate], in data set [1], the “Brix (48 Hours)” value came to 13.01, the “Calcium - Juice (48 Hours)” value is on record as 204 mg/100 mL, the “Titratable Acidity (%) (48 Hours)” value amounted to 0.657% and the “pH (48 Hours)” value was 4.03. For the same molecule, the “Brix/Acid Ratio” value in data set [1] is given as 19.8. In addition, in data set [2], the “Brix (48 hrs)” value stood at 12.80, the “Calcium in Juice (48 hrs)” value amounted to 157 mg/100 mL, the “Titratable Acidity (%) (48 hrs)” value is reported as 0.670% and the “pH (48 hrs)” value is recorded as 4.01. In addition, the “Brix/Acid Ratio” value in data set [2] is given as 19.1.

Take `O=C([O-])CC(O)C(=O)[O-].[Ca+2]` (stereo not shown) [calcium malate]: in data set [1], the “Brix (48 Hours)” value came to 12.80, the “Calcium - Juice (48 Hours)” value is 213 mg/100 mL, the “Titratable Acidity (%) (48 Hours)” value is on record as 0.641% and the “pH (48 Hours)” value was 4.17. In addition, the “Brix/Acid Ratio” value in data set [1] is 20.0. Besides, in data set [2], the “Brix (48 hrs)” value stood at 12.54, the “Calcium in Juice (48 hrs)” value stood at 166 mg/100 mL, the “Titratable Acidity (%) (48 hrs)” value is 0.635% and the “pH (48 hrs)” value is reported as 4.15. Besides, the “Brix/Acid Ratio” value in data set [2] was 19.7.

Regarding `O.O=C([O-])CCC(=O)[O-].[Ca+2]` [calcium succinate monohydrate], in data set [1], the “Brix (48 Hours)” value came to 12.85, the “Calcium - Juice (48 Hours)” value is on record as 206 mg/100 mL, the “Titratable Acidity (%) (48 Hours)” value came out at 0.607% and the “pH (48 Hours)” value is 4.66. Moreover, the “Brix/Acid Ratio” value in data set [1] came to 21.2. Further, in data set [2], the “Brix (48 hrs)” value worked out at 12.64, the “Calcium in Juice (48 hrs)” value was 161 mg/100 mL, the “Titratable Acidity (%) (48 hrs)” value amounted to 0.606% and the “pH (48 hrs)” value amounted to 4.56. The “Brix/Acid Ratio” value in data set [2] is reported as 20.9.

Turning to `O.O=P([O-])(O)O.O=P([O-])(O)O.[Ca+2]` [monocalcium phosphate monohydrate], in data set [1], the “Brix (48 Hours)” value was found to be 12.92, the “Calcium - Juice (48 Hours)” value worked out at 207 mg/100 mL, the “Titratable Acidity (%) (48 Hours)” value turned out to be 1.238% and the “pH (48 Hours)” value came to 3.69. The “Brix/Acid Ratio” value in data set [1] was found to be 10.4. Further, in data set [2], the “Brix (48 hrs)” value stood at 12.53, the “Calcium in Juice (48 hrs)” value was found to be 164 mg/100 mL, the “Titratable Acidity (%) (48 hrs)” value was found to be 1.083% and the “pH (48 hrs)” value is 3.76. Further, the “Brix/Acid Ratio” value in data set [2] is on record as 11.6.

On to `O=C([O-])CC(O)(CC(=O)[O-])C(=O)[O-].O=C([O-])CC(O)(CC(=O)[O-])C(=O)[O-].[Ca+2].[Ca+2].[Ca+2]` [tri-calcium citrate], for which, in data set [1], the “Brix (48 Hours)” value was 12.08, the “Calcium - Juice (48 Hours)” value is 177 mg/100 mL, the “Titratable Acidity (%) (48 Hours)” value is 0.630% and the “pH (48 Hours)” value amounted to 4.07. The “Brix/Acid Ratio” value in data set [1] is on record as 19.2. Also, in data set [2], the “Brix (48 hrs)” value came to 12.37, the “Calcium in Juice (48 hrs)” value was 140 mg/100 mL, the “Titratable Acidity (%) (48 hrs)” value is recorded as 0.640% and the “pH (48 hrs)” value is recorded as 4.06. In addition, the “Brix/Acid Ratio” value in data set [2] was determined as 19.3.

Consider `O=P([O-])([O-])[O-].O=P([O-])([O-])[O-].[Ca+2].[Ca+2].[Ca+2]` [tricalcium phosphate (fine), tricalcium phosphate], for which, in data set [1], the “Brix (48 Hours)” value amounted to 12.30, the “Calcium - Juice (48 Hours)” value amounted to 197 mg/100 mL, the “Titratable Acidity (%) (48 Hours)” value came out at 0.484% and the “pH (48 Hours)” value was 4.51. Also, in data set [1], the “Brix/Acid Ratio” value came out at 25.4. Also, in data set [2], the “Brix (48 hrs)” value is recorded as 12.27, the “Calcium in Juice (48 hrs)” value is 157 mg/100 mL, the “Titratable Acidity (%) (48 hrs)” value is 0.490% and the “pH (48 hrs)” value was 4.49. Besides, the “Brix/Acid Ratio” value in data set [2] turned out to be 25.0.

Turning to `O=P([O-])([O-])[O-].O=P([O-])([O-])[O-].[Ca+2].[Ca+2].[Ca+2]` [tricalcium phosphate], in data set [1], the “Brix (48 Hours)” value stood at 12.40, the “Calcium - Juice (48 Hours)” value was determined as 182 mg/100 mL, the “Titratable Acidity (%) (48 Hours)” value stood at 0.561% and the “pH (48 Hours)” value was 4.37. In data set [1], the “Brix/Acid Ratio” value is 22.1. In addition, in data set [2], the “Brix (48 hrs)” value was found to be 12.39, the “Calcium in Juice (48 hrs)” value was 147 mg/100 mL, the “Titratable Acidity (%) (48 hrs)” value is given as 0.530% and the “pH (48 hrs)” value came to 4.34. The “Brix/Acid Ratio” value in data set [2] is given as 23.4.

For calcium ascorbate dihydrate, in data set [1], the “Brix (48 Hours)” value is given as 13.99, the “Calcium - Juice (48 Hours)” value is 195 mg/100 mL, the “Titratable Acidity (%) (48 Hours)” value was 0.648% and the “pH (48 Hours)” value is listed as 4.23. Further, the “Brix/Acid Ratio” value in data set [1] amounted to 21.6. In addition, in data set [2], the “Brix (48 hrs)” value turned out to be 13.41, the “Calcium in Juice (48 hrs)” value stood at 160 mg/100 mL, the “Titratable Acidity (%) (48 hrs)” value came to 0.618% and the “pH (48 hrs)” value came to 4.16. The “Brix/Acid Ratio” value in data set [2] turned out to be 21.7.

calcium aspartate: in data set [1], the “Brix (48 Hours)” value is recorded as 13.42, the “Calcium - Juice (48 Hours)” value stood at 187 mg/100 mL, the “Titratable Acidity (%) (48 Hours)” value amounted to 0.610% and the “pH (48 Hours)” value was 4.28. Further, the “Brix/Acid Ratio” value in data set [1] turned out to be 22.0. Also, in data set [2], the “Brix (48 hrs)” value amounted to 13.11, the “Calcium in Juice (48 hrs)” value is on record as 159 mg/100 mL, the “Titratable Acidity (%) (48 hrs)” value was determined as 0.617% and the “pH (48 hrs)” value came to 4.24. The “Brix/Acid Ratio” value in data set [2] is 21.2.
